{"source": "paper PMC3432134", "about": "“Effect of Ambient Temperature on the Thermoregulatory and Locomotor Stimulant Effects of 4-Methylmethcathinone in Wistar and Sprague-Dawley Rats” (PLoS ONE, 2012)", "key": {"[1]": {"system": "Wistar and Sprague-Dawley rats", "experiment": "Body temperature by implanted radiotelemetry after s.c. drug challenge"}, "[2]": {"experiment": "Pharmacokinetic study, plasma levels by LC/MS/MS after s.c. dosing", "format": "in vivo, rat", "conditions": "for AUC(0-inf) / Tmax / Cmax: rat, plasma, sc, 5.6 mg/kg s.c.", "experimental": "Surgical placement of jugular vein catheters was conducted at the vendor prior to delivery at the laboratory. Blood samples were collected via the jugular catheters at timepoints 5, 15, 30, 60, 120 min and 3, 6 and 24 hrs after dosing. Plasma was stored at −80°C until analysis for drug concentrations via LC/MS/MS. Sample analysis was by LC/MS/MS with data analysis via the non compartmental analysis model of PK Solutions (Summit Research Services; Montrose, CO). The summary data for the Sprague-Dawley group have been previously described."}, "[3]": {"system": "extra-cellular dopamine in the nucleus accumbens shell", "experiment": "In vivo microdialysis, nucleus accumbens shell, dopamine", "set-up": "species or system rat", "conditions": "5 male Wistar rats, 10 mg/kg s.c.", "experimental": "(§1) For microdialysis studies, drug naïve rats were implanted with a microdialysis guide cannula and probe using previously published procedures. A guide cannula (SciPro, Sanborn, NY) was implanted aimed at the NAc shell (AP = +1.6 mm, bregma; ML = ±2.0 mm, bregma; DV = –5.0 mm, dura), and rats were allowed one week for recovery. On the evening prior to the experiment, a 2 mm microdialysis probe was inserted into the guide cannula and perfused overnight with artificial CSF (0.1 µl/min) composed of the following (in mM): 149 NaCl, 2.8 KCl, 1.2 CaCl2, 1.2 MgCl2, 0.25 ascorbic acid, 5.4 D-glucose. The following morning, the perfusion rate was raised to 0.6 µl/min and samples were collected in 15 min fractions following 1 hr of equilibration."}, "[4]": {"system": "extra-cellular serotonin in the nucleus accumbens shell", "experiment": "In vivo microdialysis, nucleus accumbens shell, serotonin", "set-up": "species or system rat", "conditions": "5 male Wistar rats, 10 mg/kg s.c.", "experimental": "as §1"}, "[5]": {"system": "5-HT2 receptor subtypes versus D2 receptors", "set-up": "method as in PMID 21824752", "conditions": "in vitro; greater affinity for 5-HT2; cited from earlier work"}, "extracellular dopamine": {"system": "extracellular dopamine", "set-up": "method as in PMID 21615721, PMID 22169943", "conditions": "cited from earlier work"}, "Sprague-Dawley rats": {"system": "Sprague-Dawley rats", "set-up": "method as in PMID 21810934", "conditions": "four sequential doses of 1.0 or 3.0 mg/kg s.c. two hours apart, and i.v. self-administration (mean 1.77–6.78 mg/kg), ambient ≥27°C; cited from earlier work"}, "experienced-user sample": {"system": "experienced-user sample", "conditions": "one experienced-user sample; cited from earlier work"}, "[6]": {"system": "Wistar and Sprague-Dawley rats", "experiment": "Locomotor activity (activity counts) by implanted radiotelemetry after s.c. drug challenge"}, "[7]": {"conditions": "Wistar Han, male Wistar rats (N = 3)"}, "[8]": {"conditions": "male Sprague Dawley rats (N = 3), summary data previously described [32]"}, "[9]": {"conditions": "subcutaneous dosing, rats (strain not given)"}, "[10]": {"conditions": "Sprague-Dawley rats, 23°C ambient, first hour after 3.2 mg/kg 4-MMC and 5.6 mg/kg METH, vs pretreatment and vehicle"}, "[11]": {"conditions": "Wistar and Sprague-Dawley rats, s.c."}, "[12]": {"conditions": "Wistar rats, 23°C ambient, first hour after 3.2 mg/kg 4-MMC or 5.6 mg/kg METH, second hour after 10.0 mg/kg 4-MMC, third hour after 5.6 mg/kg METH"}, "[13]": {"conditions": "both strains, 23°C ambient, first hour after 10.0 mg/kg 4-MMC or 1.0 mg/kg METH s.c., greater in Sprague-Dawley"}}, "note": "“And” between values parts separate entries of the source, which are not always exact repeats. Identical values can stand only once.", "data": [{"smiles": "CCCN(CCC)C1CCc2cccc(O)c2C1", "note": "(stereo not drawn) [8-OH-DPAT]", "values": [{"measurement": "mean temperature nadir", "setting": "[1]; Sprague-Dawley rats, 0.3 mg/kg s.c., 23°C ambient", "result": "35.62 (±0.177) °C"}, {"measurement": "body temperature (hourly average)", "setting": "[1]; Sprague-Dawley rats, 0.05, 0.1, 0.3 mg/kg, first hour (second hour also for 0.3 mg/kg), vs vehicle and baseline", "result": "lowered body temperature"}, {"measurement": "mean temperature nadir", "setting": "[1]; Wistar rats, 0.3 mg/kg s.c., 23°C ambient", "result": "35.18 (±0.178) °C"}, {"measurement": "body temperature (hourly average)", "setting": "[1]; Wistar rats, two hours after dosing with all three doses (0.05, 0.1, 0.3 mg/kg), vs vehicle and baseline", "result": "hypothermia"}, {"measurement": "body temperature", "setting": "[1]; each strain of rats, 23°C ambient, s.c.", "result": "significantly reduced"}]}, {"smiles": "CNC(C)C(=O)c1ccc(C)cc1", "note": "(stereo not drawn) [4-MMC, 4-methylmethcathinone]", "values": [{"measurement": "AUC(0-inf)", "setting": "[2]; [7]", "result": 870, "unit": "ng·h/mL"}, {"measurement": "Tmax", "setting": "[2]; [7]", "result": 15, "unit": "min"}, {"measurement": "Cmax", "setting": "[2]; [7]", "result": "868 ng/mL and 4.9 µM"}, {"measurement": "AUC(0-inf)", "setting": "[2]; [8]", "result": 1170, "unit": "ng·h/mL"}, {"measurement": "Tmax", "setting": "[2]; [8]", "result": 15, "unit": "min"}, {"measurement": "Cmax", "setting": "[2]; [8]", "result": "1210 ng/mL and 6.81 µM"}, {"measurement": "elimination from plasma", "setting": "[2]; [9]", "result": "mostly eliminated within two hours"}, {"measurement": "time at which maximum plasma levels were observed", "setting": "[2]; [9]", "result": "≤ 15", "unit": "min"}, {"measurement": "relative increase of extra-cellular DA over baseline", "setting": "[3]", "result": "~9", "unit": "fold"}, {"measurement": "duration of significant increase of DA over the pre-treatment average", "setting": "[3]; Dunnett post-hoc", "result": 2, "unit": "h"}, {"measurement": "relative increase of extra-cellular 5-HT over baseline", "setting": "[4]", "result": "~22", "unit": "fold"}, {"measurement": "duration of significant increase of 5-HT over the pre-treatment average", "setting": "[4]; Dunnett post-hoc", "result": 1.5, "unit": "h"}, {"measurement": "affinity for 5-HT2 receptor subtypes relative to D2 receptors", "setting": "[5]", "result": 15, "unit": "fold"}, {"measurement": "increase of extracellular dopamine, less than METH", "setting": "extracellular dopamine", "result": "about 6 fold"}, {"measurement": "rectal temperature", "setting": "Sprague-Dawley rats", "result": "elevates"}, {"measurement": "users reporting cold extremities", "setting": "experienced-user sample", "result": "About 15%"}, {"measurement": "users reporting excessive perspiration", "setting": "experienced-user sample", "result": 67, "unit": "%"}, {"measurement": "body temperature (hourly average)", "setting": "[1]; Sprague-Dawley rats, 23°C ambient, only following 3.2 mg/kg (2, 3 hrs) and 5.6 mg/kg (3 hrs)", "result": "lower than both the pretreatment baseline and the comparable timepoint after vehicle injection"}, {"measurement": "body temperature (hourly average)", "setting": "[1]; Sprague-Dawley rats, 23°C ambient, second hour after 10.0 mg/kg", "result": "increased relative to vehicle"}, {"measurement": "body temperature (hourly average)", "setting": "[1]; Sprague-Dawley rats, 27°C ambient, first hour after administration", "result": "unchanged"}, {"measurement": "body temperature (hourly average)", "setting": "[1]; Sprague-Dawley rats, 27°C ambient, third hour after 1.0 mg/kg, vs baseline and vehicle", "result": "reliable decrease"}, {"measurement": "mean temperature nadir", "setting": "[1]; Wistar rats, 10 mg/kg s.c., 23°C ambient, (±SEM)", "result": "36.74 (±0.187) °C"}, {"measurement": "mean temperature nadir", "setting": "[1]; Wistar rats, 10 mg/kg s.c., 27°C ambient, (±SEM)", "result": "37.35 (±0.115) °C"}, {"measurement": "body temperature (hourly average)", "setting": "[1]; Wistar rats, 23°C ambient, first hour after 3.2, 5.6 and 10 mg/kg s.c., vs baseline, saline and Sprague-Dawley", "result": "significantly lowered"}, {"measurement": "body temperature (hourly average)", "setting": "[1]; Wistar rats, 27°C ambient, first hour after 5.6 or 10.0 mg/kg s.c., vs baseline, saline and Sprague-Dawley", "result": "decreased"}, {"measurement": "duration of temperature and activity effects", "setting": "[1]; s.c. dosing, rats, applies to temperature and activity", "result": "about 90 minutes"}, {"measurement": "locomotor activity (hourly summed counts)", "setting": "[6]; [10]", "result": "reliably higher"}, {"measurement": "locomotor activity (hourly summed counts)", "setting": "[6]; Sprague-Dawley rats, 27°C ambient, first hour after 5.6 or 10.0 mg/kg, vs pre-injection, vehicle and Wistar", "result": "higher"}, {"measurement": "efficacy in stimulating locomotion relative to d-methamphetamine (METH)", "setting": "[6]; [11]", "result": "equally efficacious"}, {"measurement": "potency in stimulating locomotion relative to METH", "setting": "[6]; [11]", "result": "about tenfold less potent"}, {"measurement": "locomotor activity (hourly summed counts)", "setting": "[6]; [12]", "result": "higher than the vehicle condition"}, {"measurement": "locomotor activity (hourly summed counts)", "setting": "[6]; Wistar rats, 27°C ambient, after 3.2, 5.6 and 10.0 mg/kg, vs hour before injection and vehicle", "result": "higher"}, {"measurement": "locomotor activity (hourly summed counts)", "setting": "[6]; [13]", "result": "increased over pretreatment levels and vehicle"}, {"measurement": "locomotor activity (hourly summed counts)", "setting": "[6]; each strain, 23°C ambient, first hour after 5.6 or 10.0 mg/kg s.c., vs pre-injection hour and saline", "result": "significantly elevated"}, {"measurement": "locomotor activity (hourly summed counts)", "setting": "[6]; each strain, 23°C ambient, second hour after 10.0 mg/kg, vs vehicle, effect greater in Sprague-Dawley", "result": "significant increase"}]}, {"smiles": "CN[C@@H](C)Cc1ccccc1", "note": "[METH, d-methamphetamine]", "values": [{"measurement": "body temperature (hourly average)", "setting": "[1]; Sprague-Dawley rats, 23°C ambient, first hour after 1.0 mg/kg and first two hours after 5.6 mg/kg s.c., vs baseline and vehicle", "result": "significantly increased"}, {"measurement": "locomotor activity (hourly summed counts)", "setting": "[6]; [10]", "result": "reliably higher"}, {"measurement": "locomotor activity (hourly summed counts)", "setting": "[6]; [12]", "result": "higher than the vehicle condition"}, {"measurement": "locomotor activity (hourly summed counts)", "setting": "[6]; [13]", "result": "increased over pretreatment levels and vehicle"}, {"measurement": "locomotor activity (hourly summed counts)", "setting": "[6]; both strains, 23°C ambient, second hour after 5.6 mg/kg s.c.", "result": "suppressed"}]}]}
